Test results published in patent publication US7820623B2 (priority 2006, dated 2010).
Like-named read-outs stand apart in the source and are kept apart here. Bridge positions count the residues as written; N and C are the ends. Square brackets hold non-standard residues; d marks the D form. Peptide text beside a SMILES is read from it. 1Nal = N[C@@H](Cc1cccc2ccccc12)C(=O)O

Columns and labels:
human Kv1.3 (CHO) = biological target: T1, human Kv1.3 (CHO) (Homo sapiens, UniProt P22001); assay: cell-based; type: cell-based
T1 construct: expressed in transfected cells
T1 sequence (P22001 whole entry): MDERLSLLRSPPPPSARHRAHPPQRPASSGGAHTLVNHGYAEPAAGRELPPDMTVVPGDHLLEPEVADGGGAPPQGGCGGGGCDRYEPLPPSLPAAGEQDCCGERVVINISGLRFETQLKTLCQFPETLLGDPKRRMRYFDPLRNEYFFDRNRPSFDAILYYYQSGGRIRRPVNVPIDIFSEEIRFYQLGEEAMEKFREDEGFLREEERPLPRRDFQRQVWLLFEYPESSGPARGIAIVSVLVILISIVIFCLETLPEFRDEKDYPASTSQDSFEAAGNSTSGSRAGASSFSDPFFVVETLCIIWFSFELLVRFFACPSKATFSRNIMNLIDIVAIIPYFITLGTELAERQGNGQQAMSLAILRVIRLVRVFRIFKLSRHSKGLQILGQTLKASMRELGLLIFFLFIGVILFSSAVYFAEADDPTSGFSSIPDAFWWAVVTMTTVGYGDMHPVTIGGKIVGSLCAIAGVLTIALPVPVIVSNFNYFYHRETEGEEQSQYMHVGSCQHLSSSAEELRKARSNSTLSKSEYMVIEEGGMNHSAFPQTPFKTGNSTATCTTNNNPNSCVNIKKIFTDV

human Kv1.1 (HEK293) = biological target: T2, human Kv1.1 (HEK293) (Homo sapiens, UniProt Q09470); assay: cell-based
T2 construct: expressed in transfected cells; host or cells: HEK293
T2 sequence (Q09470 whole entry): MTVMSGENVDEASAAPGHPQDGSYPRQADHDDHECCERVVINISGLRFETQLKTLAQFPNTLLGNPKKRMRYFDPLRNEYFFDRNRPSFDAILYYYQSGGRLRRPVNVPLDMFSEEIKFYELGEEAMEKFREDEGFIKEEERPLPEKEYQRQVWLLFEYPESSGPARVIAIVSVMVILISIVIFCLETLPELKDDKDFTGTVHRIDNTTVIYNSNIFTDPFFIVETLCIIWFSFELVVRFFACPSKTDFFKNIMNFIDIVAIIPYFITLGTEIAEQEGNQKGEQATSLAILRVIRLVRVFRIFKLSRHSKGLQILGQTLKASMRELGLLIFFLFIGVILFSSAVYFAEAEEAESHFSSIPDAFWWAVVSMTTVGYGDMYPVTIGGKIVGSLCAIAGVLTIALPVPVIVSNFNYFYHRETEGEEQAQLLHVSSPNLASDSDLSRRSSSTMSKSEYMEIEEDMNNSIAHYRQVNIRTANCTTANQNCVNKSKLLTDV

[1] = system: thapsigargin-induced IFN-g production in human whole blood; type: cell-based; conditions: for IC50: read-out: Analogue Activity (IC50) WB/IFNg
[2] = system: thapsigargin-induced IL-2 production in human whole blood; conditions: for IC50: read-out: Analogue Activity (IC50) WB/IL-2
human Kv1.3 = human Kv1.3 (Homo sapiens, UniProt P22001); assay: cell-based
Chain of human Kv1.3 (P22001 whole entry): as the sequence (P22001 whole entry) above

[3] = read-out: IC50 for block of the outward potassium current

Question: For `CC[C@H](C)[C@@H]1NC(=O)[C@H](CCCCN)NC(=O)[C@@H](NC(=O)[C@H](CCCCN)NC(=O)[C@@H](NC(=O)[C@H](CC(N)=O)NC(=O)[C@@H](NC(=O)[C@@H](NC(=O)[C@@H](NC(=O)CN)C(C)C)[C@@H](C)CC)[C@@H](C)CC)C(C)C)CSSC[C@@H]2NC(=O)[C@H](CCCCN)NC(=O)CNC(=O)[C@H](Cc3ccccc3)NC(=O)[C@H](CCCNC(=N)N)NC(=O)[C@H](CCSC)NC(=O)CNC(=O)[C@H](Cc3cccc4ccccc34)NC(=O)[C@H](CCCCN)NC(=O)[C@H](CCCCN)NC(=O)[C@@H]3CSSC[C@@H](C(=O)N[C@H](C(=O)N4CCC[C@H]4C(=O)N[C@@H](CCCCN)C(=O)O)[C@@H](C)O)NC(=O)[C@H](Cc4c[nH]cn4)NC(=O)[C@H](CSSC[C@H](NC(=O)[C@H](CCC(N)=O)NC(=O)[C@H](CCCNC(=N)N)NC(=O)[C@H](CO)NC1=O)C(=O)N[C@@H](CC(C)C)C(=O)N[C@@H](CCC(=O)O)C(=O)N1CCC[C@H]1C(=O)N3)NC(=O)[C@H](CCCCN)NC(=O)CNC(=O)[C@H](CC(N)=O)NC(=O)[C@H](CCSC)NC2=O` [A21Nal] (H-GVIINVKCKISRQCLEPCKK[1Nal]GMRFGKCMNGKCHCTPK-OH; disulfide 8-28, 14-33, 18-35), which IC50 (human Kv1.3 (CHO)) is on record?
Answer: The IC50 was 0.0261 nM.

Question: And the IC50 (human Kv1.1 (HEK293))?
Answer: The IC50 was < 0.00152 nM.

Question: What about the IC50 [1] of the same compound?
Answer: The IC50 was 0.434 nM.

Question: And the IC50 [2]?
Answer: The IC50 was 0.315 nM.

Question: With `CC[C@H](C)[C@@H]1NC(=O)[C@H](CCCCN)NC(=O)[C@@H](NC(=O)[C@H](CCCCN)NC(=O)[C@@H](NC(=O)[C@H](CC(N)=O)NC(=O)[C@@H](NC(=O)[C@@H](NC(=O)[C@@H](NC(=O)[C@@H](N)Cc2cccc3ccccc23)C(C)C)[C@@H](C)CC)[C@@H](C)CC)C(C)C)CSSC[C@@H]2NC(=O)[C@H](CCCCN)NC(=O)CNC(=O)[C@H](Cc3ccccc3)NC(=O)[C@H](CCCNC(=N)N)NC(=O)[C@H](CCSC)NC(=O)CNC(=O)[C@H](C)NC(=O)[C@H](CCCCN)NC(=O)[C@H](CCCCN)NC(=O)[C@@H]3CSSC[C@@H](C(=O)N[C@H](C(=O)N4CCC[C@H]4C(=O)N[C@@H](CCCCN)C(=O)O)[C@@H](C)O)NC(=O)[C@H](Cc4c[nH]cn4)NC(=O)[C@H](CSSC[C@H](NC(=O)[C@H](CCC(N)=O)NC(=O)[C@H](CCCNC(=N)N)NC(=O)[C@H](CO)NC1=O)C(=O)N[C@@H](CC(C)C)C(=O)N[C@@H](CCC(=O)O)C(=O)N1CCC[C@H]1C(=O)N3)NC(=O)[C@H](CCCCN)NC(=O)CNC(=O)[C@H](CC(N)=O)NC(=O)[C@H](CCSC)NC2=O` [G1Nal] (H-[1Nal]VIINVKCKISRQCLEPCKKAGMRFGKCMNGKCHCTPK-OH; disulfide 8-28, 14-33, 18-35) as the compound, how does the IC50 (human Kv1.3 (CHO)) read?
Answer: Its IC50 is 0.0207 nM.

Question: And the IC50 (human Kv1.1 (HEK293))?
Answer: The IC50 was 0.0339 nM.

Question: What about the IC50 [1] of the same compound?
Answer: Its IC50 is 2.56 nM.

Question: And the IC50 [2]?
Answer: The IC50 was 2.79 nM.

Question: `CC[C@H](C)[C@H](NC(=O)[C@@H](NC(=O)CN)C(C)C)C(=O)N[C@H](C(=O)N[C@@H](CC(N)=O)C(=O)N[C@H](C(=O)N[C@@H](CCCCN)C(=O)N[C@H]1CSSC[C@@H]2NC(=O)[C@H](CCCCN)NC(=O)CNC(=O)[C@H](Cc3ccccc3)NC(=O)[C@H](CCCNC(=N)N)NC(=O)[C@H](CCSC)NC(=O)CNC(=O)[C@H](C)NC(=O)[C@H](CCCCN)NC(=O)[C@H](CCCCN)NC(=O)[C@@H]3CSSC[C@@H](C(=O)N[C@H](C(=O)N4CCC[C@H]4C(=O)N[C@@H](CCCCN)C(=O)O)[C@@H](C)O)NC(=O)[C@H](Cc4c[nH]cn4)NC(=O)[C@H](CSSC[C@H](NC(=O)[C@H](CCC(N)=O)NC(=O)[C@H](CCCNC(=N)N)NC(=O)[C@H](CO)NC(=O)[C@H](Cc4cccc5ccccc45)NC(=O)[C@H](CCCCN)NC1=O)C(=O)N[C@@H](CC(C)C)C(=O)N[C@@H](CCC(=O)O)C(=O)N1CCC[C@H]1C(=O)N3)NC(=O)[C@H](CCCCN)NC(=O)CNC(=O)[C@H](CC(N)=O)NC(=O)[C@H](CCSC)NC2=O)C(C)C)[C@@H](C)CC` [I10Nal] (H-GVIINVKCK[1Nal]SRQCLEPCKKAGMRFGKCMNGKCHCTPK-OH; disulfide 8-28, 14-33, 18-35) was tested. Which IC50 (human Kv1.3 (CHO)) did it give?
Answer: Its IC50 is 0.0454 nM.

Question: What about the IC50 (human Kv1.1 (HEK293)) of the same compound?
Answer: The IC50 was < 0.00152 nM.

Question: And the IC50 [1]?
Answer: Its IC50 is 0.257 nM.

Question: And the IC50 [2]?
Answer: The IC50 was 0.184 nM.

Question: What does the source list for `CC[C@H](C)[C@@H]1NC(=O)[C@H](CCCCN)NC(=O)[C@@H](NC(=O)[C@H](CCCCN)NC(=O)[C@@H](NC(=O)[C@H](CC(N)=O)NC(=O)[C@@H](NC(=O)[C@@H](NC(=O)[C@@H](NC(=O)CN)C(C)C)[C@@H](C)CC)[C@@H](C)CC)C(C)C)CSSC[C@@H]2NC(=O)[C@H](CCCCN)NC(=O)CNC(=O)[C@H](Cc3ccccc3)NC(=O)[C@H](CCCNC(=N)N)NC(=O)[C@H](CCSC)NC(=O)CNC(=O)[C@H](C)NC(=O)[C@H](CCCCN)NC(=O)[C@H](CCCCN)NC(=O)[C@@H]3CSSC[C@@H](C(=O)N[C@H](C(=O)N4CCC[C@H]4C(=O)N[C@@H](CCCCN)C(=O)O)[C@@H](C)O)NC(=O)[C@H](Cc4c[nH]cn4)NC(=O)[C@H](CSSC[C@H](NC(=O)[C@H](CCC(N)=O)NC(=O)[C@H](CCCNC(=N)N)NC(=O)[C@H](CCC(=O)O)NC1=O)C(=O)N[C@@H](CC(C)C)C(=O)N[C@@H](CCC(=O)O)C(=O)N1CCC[C@H]1C(=O)N3)NC(=O)[C@H](CCCCN)NC(=O)CNC(=O)[C@H](CC(N)=O)NC(=O)[C@H](CCSC)NC2=O` [S11E] (H-GVIINVKCKIERQCLEPCKKAGMRFGKCMNGKCHCTPK-OH; disulfide 8-28, 14-33, 18-35)?
Answer: IC50 (human Kv1.3 (CHO)): > 3.33 nM; IC50 (human Kv1.1 (HEK293)): > 3.33 nM

Question: For `CC[C@H](C)[C@@H]1NC(=O)[C@@H](NC(=O)[C@@H](N)CO)CSSC[C@@H](C(=O)O)NC(=O)[C@H]([C@@H](C)O)NC(=O)CNC(=O)[C@@H]2CSSC[C@@H]3NC(=O)[C@H](CCC(N)=O)NC(=O)[C@H](Cc4ccccc4)NC(=O)[C@H](C)NC(=O)[C@H]([C@@H](C)O)NC(=O)[C@H](CSSC[C@H](NC(=O)[C@H](Cc4ccccc4)NC(=O)[C@H](CO)NC(=O)[C@H](CC(C)C)NC(=O)[C@H](CCCNC(=N)N)NC(=O)[C@H](Cc4ccc(O)cc4)NC(=O)[C@H](CCCCN)NC(=O)[C@H](CCSC)NC(=O)[C@H](CO)NC(=O)[C@H](Cc4c[nH]cn4)NC(=O)[C@H](CCCCN)NC3=O)C(=O)N[C@@H](CCCNC(=N)N)C(=O)N[C@@H](CCCCN)C(=O)N[C@@H]([C@@H](C)O)C(=O)N2)NC(=O)[C@H](CCCNC(=N)N)NC(=O)[C@H](CO)NC(=O)[C@H](CCCCN)NC(=O)[C@@H]2CCCN2C(=O)[C@H]([C@@H](C)CC)NC(=O)[C@H]([C@@H](C)O)NC(=O)[C@H](CC(=O)O)NC1=O` [ShK[2-35]] (H-SCIDTIPKSRCTAFQCKHSMKYRLSFCRKTCGTC-OH; disulfide 2-34, 11-27, 16-31), which IC50 (human Kv1.3) is on record?
Answer: The IC50 was 0.049 ± 0.005 nM.

Question: E. coli-derived Fc-L-OSK1 was tested. Which IC50 (human Kv1.3; read-out: Kv1.3 IC50 by WCVC) did it give?
Answer: Its IC50 is 3.2 nM.

Question: E. coli-derived Fc-L-ShK[1-35] was tested. Which IC50 (human Kv1.3; read-out: Kv1.3 IC50 by WCVC) did it give?
Answer: The IC50 was 1.4 nM.

Question: E. coli-derived Fc-L-ShK[2-35] was tested. Which IC50 (human Kv1.3 (CHO); read-out: Kv1.3 IC50 by IWQ) did it give?
Answer: Its IC50 is 2.8 nM.

Question: What about the IC50 (human Kv1.3; read-out: Kv1.3 IC50 by WCVC) of the same compound?
Answer: The IC50 was 1.3 nM.

Question: With “Fc-L5-ShK[2-35]: human IgG1 Fc fused via 5 amino acid linker to ShK[2-35]” as the compound, how does the IC50 (human Kv1.3; [3]) read?
Answer: The IC50 was 0.1 nM.

Question: With “Fc-L10-ShK[2-35]: human IgG1 Fc fused via 10 amino acid linker to ShK[2-35]” as the compound, how does the IC50 (human Kv1.3; [3]) read?
Answer: Its IC50 is 0.115 ± 0.018 nM.

Question: And the “thapsigargin-induced IFN-g production in human whole blood” value [1]?
Answer: Its value is “suppressed”.

Question: What about the “stability in whole blood” value [2] of the same compound?
Answer: The value was “stable in whole blood”.

Question: What about the “thapsigargin-induced IL-2 production in human whole blood” value [2] of the same compound?
Answer: Its value is “suppressed”.

Question: And the “times more potent than cyclosporine A in blocking IL-2 production (IC50)” value [2]?
Answer: The value was “more than 200 times”.

Question: “Fc-L-KTX1: Fc-linker fusion of Kaliotoxin1 (KTX1)” was tested. Which “block of human Kv1.3 current” value (human Kv1.3) did it give?
Answer: The value was “blocked the human Kv1.3 current in a dose-dependent fashion”.
